Measured values as given in paper PMC12504763, “Antiproliferation, 3D-multicellular spheroid and VEGFR-2 inhibitory properties of spiroindolin-2-ones with phosphonate function” (Scientific Reports, 2025).
Like-named read-outs stand apart in the source and are kept apart here.

Experiments:
[1] = system: A549 (lung) cancer cell line; experiment: 2D-monolayer antiproliferation (MTT) against A549; format: cell-based, human; conditions: for IC50: Homo sapiens, MTT, 72 h incubation, A549 lung, read-out: IC50, μM ± SEM A549; for SI (selectivity index) A549: IC50 of RPE1 normal cell/IC50 of A549
COX-1 = target: T1, COX-1 (Ovis aries, UniProt P05979); experiment: biochemical; conditions: 3 replicates, read-out: % Inhibition of COX-1 ± SEM
T1 construct: purchased BioVision incorporated USA K548–100
T1 sequence (P05979 25-600): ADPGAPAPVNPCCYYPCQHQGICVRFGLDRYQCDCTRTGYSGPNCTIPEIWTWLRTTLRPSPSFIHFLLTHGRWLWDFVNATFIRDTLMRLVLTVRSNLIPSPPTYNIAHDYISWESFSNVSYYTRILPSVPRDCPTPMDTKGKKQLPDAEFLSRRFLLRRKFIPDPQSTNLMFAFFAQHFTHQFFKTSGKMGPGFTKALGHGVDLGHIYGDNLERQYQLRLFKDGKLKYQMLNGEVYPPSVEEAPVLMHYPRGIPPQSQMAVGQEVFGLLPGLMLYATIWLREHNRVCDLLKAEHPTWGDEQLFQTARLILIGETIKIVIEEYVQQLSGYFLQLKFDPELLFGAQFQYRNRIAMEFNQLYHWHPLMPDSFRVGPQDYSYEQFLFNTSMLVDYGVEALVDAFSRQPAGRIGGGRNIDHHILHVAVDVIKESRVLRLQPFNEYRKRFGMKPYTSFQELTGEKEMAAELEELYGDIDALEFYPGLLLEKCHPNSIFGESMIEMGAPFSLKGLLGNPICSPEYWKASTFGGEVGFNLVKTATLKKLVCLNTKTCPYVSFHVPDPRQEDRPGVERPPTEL

VEGFR-2 [2] = target: T2, VEGFR-2 (Homo sapiens, UniProt P35968); experiment: cell-based; format: cell-based; conditions: for inhibition at 10 µM: HCT-116, HCT116; for VEGFR-2 pg/mL ± SEM HCT116: at 10 μM, control 317.80 ± 3.5
T2 construct: endogenous in cells; host or cells: HCT116, PaCa2, MCF7 (human cancer cell lines, ATCC origin)

[3] = system: PaCa2 (pancreatic) cancer cell line; experiment: 2D-monolayer antiproliferation (MTT) against PaCa2; format: cell-based, human; conditions: for IC50: Homo sapiens, PaCa-2, MTT, 72 h incubation, PaCa2 pancreatic, read-out: IC50, μM ± SEM PaCa2; for SI (selectivity index) PaCa2: IC50 of RPE1 normal cell/IC50 of PaCa2; for 1/(observed property): 1/observed IC50 (μM), PaCa2
COX-2 = target: T3, COX-2 (Homo sapiens, UniProt P35354); experiment: biochemical; conditions: for inhibition at 10 µM: 3 replicates, read-out: % Inhibition of COX-2 ± SEM; for SI (selectivity index, COX-2/COX-1): at 10 μM
T3 construct: purchased BioVision incorporated USA K548–100
T3 sequence (P35354 18-604): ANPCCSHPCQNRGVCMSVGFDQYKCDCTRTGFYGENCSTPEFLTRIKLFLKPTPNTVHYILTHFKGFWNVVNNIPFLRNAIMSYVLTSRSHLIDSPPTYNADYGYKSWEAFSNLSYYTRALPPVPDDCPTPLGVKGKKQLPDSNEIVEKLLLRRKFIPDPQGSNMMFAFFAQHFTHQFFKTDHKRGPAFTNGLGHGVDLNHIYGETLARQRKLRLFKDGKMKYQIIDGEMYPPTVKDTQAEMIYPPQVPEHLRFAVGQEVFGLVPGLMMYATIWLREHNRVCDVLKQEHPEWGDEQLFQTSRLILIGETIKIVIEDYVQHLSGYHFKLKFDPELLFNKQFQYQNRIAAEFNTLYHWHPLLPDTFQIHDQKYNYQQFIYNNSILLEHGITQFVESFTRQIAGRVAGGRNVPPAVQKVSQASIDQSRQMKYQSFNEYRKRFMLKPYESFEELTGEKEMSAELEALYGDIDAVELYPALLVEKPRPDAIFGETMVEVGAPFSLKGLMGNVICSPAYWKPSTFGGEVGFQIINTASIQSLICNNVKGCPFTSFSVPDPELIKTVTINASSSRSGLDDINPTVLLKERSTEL

VEGFR-2 [4] = target: T2, VEGFR-2; experiment: cell-based; format: cell-based; conditions: for inhibition at 10 µM: PaCa-2, PaCa2; for VEGFR-2 pg/mL ± SEM PaCa2: at 10 μM, control 326.80 ± 1.9
TNF-α [5] = experiment: TNF-α inhibitory properties (ELISA), PaCa2 cell lysate; format: cell-based, human; conditions: at 10 μM; for TNF-α pg/mL (± SEM) PaCa2: control 111.8 ± 2.0
TNF-α [6] = experiment: TNF-α inhibitory properties (ELISA), HCT116 cell lysate; format: cell-based, human; conditions: at 10 μM; for TNF-α pg/mL (± SEM) HCT116: control 95.74 ± 0.5
[7] = system: MCF7 (breast) cancer cell line; experiment: 2D-monolayer antiproliferation (MTT) against MCF7; format: cell-based, human; conditions: for IC50: Homo sapiens, MTT, 72 h incubation, MCF7 breast, read-out: IC50, μM ± SEM MCF7; for SI (selectivity index) MCF7: IC50 of RPE1 normal cell/IC50 of MCF7
[8] = system: HCT116 (colon) cancer cell line; experiment: 2D-monolayer antiproliferation (MTT) against HCT116; format: cell-based, human; conditions: for IC50: Homo sapiens, HCT-116; for SI (selectivity index) HCT116: IC50 of RPE1 normal cell/IC50 of HCT116
TNF-α [9] = experiment: TNF-α inhibitory properties (ELISA), MCF7 cell lysate; format: cell-based, human; conditions: at 10 μM; for TNF-α pg/mL (± SEM) MCF7: control 83.26 ± 1.1
[10] = system: RPE1 (normal human immortalized retinal pigment epithelial cell line); experiment: cells; format: cell-based; conditions: Homo sapiens, RPE-1; MTT, normal RPE1 cell; read-out: IC50, μM ± SEM RPE1
VEGFR-2 [11] = target: T2, VEGFR-2; experiment: cell-based; format: cell-based; conditions: for inhibition at 10 µM: MCF7; for VEGFR-2 pg/mL ± SEM MCF7: at 10 μM, control 258.70 ± 2.3
[12] = MTT, 72 h incubation, HCT116 colon, read-out: IC50, μM ± SEM HCT116
[13] = log of observed IC50 (μM), HCT116, read-out: Log(observed property) (converted)

T2 sequence (P35968 20-1356): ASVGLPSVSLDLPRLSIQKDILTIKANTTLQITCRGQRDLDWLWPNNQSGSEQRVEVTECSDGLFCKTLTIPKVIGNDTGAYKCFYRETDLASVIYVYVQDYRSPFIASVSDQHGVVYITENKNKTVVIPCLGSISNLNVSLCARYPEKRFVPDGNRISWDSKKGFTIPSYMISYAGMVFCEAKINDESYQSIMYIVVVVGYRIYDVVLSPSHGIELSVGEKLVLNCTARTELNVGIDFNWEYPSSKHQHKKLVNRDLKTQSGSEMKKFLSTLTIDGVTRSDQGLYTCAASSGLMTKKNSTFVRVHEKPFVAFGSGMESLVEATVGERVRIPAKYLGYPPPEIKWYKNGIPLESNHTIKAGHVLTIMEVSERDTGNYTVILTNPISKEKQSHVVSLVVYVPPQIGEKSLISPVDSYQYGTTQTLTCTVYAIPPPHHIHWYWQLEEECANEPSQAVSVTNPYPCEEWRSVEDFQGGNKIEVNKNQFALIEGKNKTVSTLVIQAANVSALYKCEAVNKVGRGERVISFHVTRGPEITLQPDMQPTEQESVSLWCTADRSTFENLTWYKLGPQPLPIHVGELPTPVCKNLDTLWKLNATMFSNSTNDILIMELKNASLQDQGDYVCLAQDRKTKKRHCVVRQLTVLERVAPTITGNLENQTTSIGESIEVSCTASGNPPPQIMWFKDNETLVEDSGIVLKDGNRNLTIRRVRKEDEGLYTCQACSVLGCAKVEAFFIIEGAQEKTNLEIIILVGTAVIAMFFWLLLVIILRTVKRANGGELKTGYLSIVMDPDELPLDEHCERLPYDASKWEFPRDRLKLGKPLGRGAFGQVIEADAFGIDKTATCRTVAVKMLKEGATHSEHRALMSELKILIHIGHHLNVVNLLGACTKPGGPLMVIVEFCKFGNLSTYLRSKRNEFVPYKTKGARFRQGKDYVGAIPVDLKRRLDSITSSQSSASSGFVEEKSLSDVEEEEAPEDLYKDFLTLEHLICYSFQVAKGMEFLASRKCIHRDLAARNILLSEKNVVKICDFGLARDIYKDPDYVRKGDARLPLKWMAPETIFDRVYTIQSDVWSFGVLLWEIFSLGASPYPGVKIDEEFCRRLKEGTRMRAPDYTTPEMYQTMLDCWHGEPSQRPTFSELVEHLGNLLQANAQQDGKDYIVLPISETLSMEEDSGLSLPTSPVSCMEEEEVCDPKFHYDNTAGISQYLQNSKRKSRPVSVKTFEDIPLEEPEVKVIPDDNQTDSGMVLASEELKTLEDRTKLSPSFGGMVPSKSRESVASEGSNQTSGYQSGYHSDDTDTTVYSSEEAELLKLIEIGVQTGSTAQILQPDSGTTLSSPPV

Row | SMILES | IC50 [1] | SI (selectivity index) A549 [1] | inhibition at 10 µM (COX-1) | inhibition at 10 µM (VEGFR-2 [2]) | VEGFR-2 pg/mL ± SEM HCT116 (VEGFR-2 [2]) | IC50 [3] | SI (selectivity index) PaCa2 [3] | inhibition at 10 µM (COX-2) | SI (selectivity index, COX-2/COX-1) (COX-2) | inhibition at 10 µM (VEGFR-2 [4]) | VEGFR-2 pg/mL ± SEM PaCa2 (VEGFR-2 [4]) | TNF-α % inhibition PaCa2 (TNF-α [5]) | TNF-α pg/mL (± SEM) PaCa2 (TNF-α [5]) | TNF-α % inhibition HCT116 (TNF-α [6]) | TNF-α pg/mL (± SEM) HCT116 (TNF-α [6]) | IC50 [7] | SI (selectivity index) MCF7 [7] | IC50 [8, 12] | IC50 [8, 13] | SI (selectivity index) HCT116 [8] | further results
1 | CCOP(=O)(OCC)N1C/C(=C\c2ccccc2)C(=O)C2(C1)C(c1ccccc1)CN(C)C21C(=O)Nc2ccc(F)cc21 (stereo not shown) [Compound 17b, Diethyl (E)-(5′′-benzylidene-5-fluoro-1′-methyl-2,4′′-dioxo-4′-phenyldispiro[indoline-3,2′-pyrrolidine-3′,3′′-piperidin]-1′′-yl)phosphonate] | 11 ± 0.135 µM | 2.1 | 53.7 ± 3.7% | 77% | 73.25 ± 2.0 pg/mL | 12.2 ± 0.297 µM | 1.9 | 61.3 ± 2.6% | 1.04 | 88.1% | 38.75 ± 1.4 pg/mL | 5.5% | 105.7 ± 3.9 pg/mL | 1.1% | 94.64 ± 2.2 pg/mL | 5.83 ± 0.213 µM | 4.0 | 7.41 ± 0.228 µM | 7.41 µM | 3.1 | TNF-α pg/mL (± SEM) MCF7 (TNF-α [9]): 82.25 ± 2.6 pg/mL; IC50 [10]: 23.1 ± 0.884 µM; inhibition at 10 µM (VEGFR-2 [11]): 70.2%; VEGFR-2 pg/mL ± SEM MCF7 (VEGFR-2 [11]): 77.20 ± 0.6 pg/mL
2 | CCOP(=O)(OCC)N1C/C(=C\c2ccccc2)C(=O)C2(C1)C(c1ccccc1)CN(C)C21C(=O)Nc2ccc(Cl)cc21 (stereo not shown) [Compound 17c, Diethyl (E)-(5′′-benzylidene-5-chloro-1′-methyl-2,4′′-dioxo-4′-phenyldispiro[indoline-3,2′-pyrrolidine-3′,3′′-piperidin]-1′′-yl)phosphonate] | 12.5 ± 0.205 µM | 1.1 | 58.6 ± 3.5% | 86% | 44.50 ± 1.1 pg/mL | 9.15 ± 0.154 µM | 1.5 | 53.9 ± 1.7% | 1.05 | 91.3% | 28.43 ± 1.0 pg/mL | 69.8% | 33.8 ± 2.2 pg/mL | 66.9% | 31.72 ± 1.2 pg/mL | 5.27 ± 0.172 µM | 2.6 | 6.32 ± 0.132 µM | 6.32 µM | 2.2 | 1/(observed property) [3]: 0.1093; TNF-α % inhibition MCF7 (TNF-α [9]): 72.2%; TNF-α pg/mL (± SEM) MCF7 (TNF-α [9]): 23.16 ± 0.7 pg/mL; IC50 [10]: 13.8 ± 0.423 µM; inhibition at 10 µM (VEGFR-2 [11]): 76.7%; VEGFR-2 pg/mL ± SEM MCF7 (VEGFR-2 [11]): 60.40 ± 0.5 pg/mL
3 | CCOP(=O)(OCC)N1C/C(=C\c2ccc(F)cc2)C(=O)C2(C1)C(c1ccc(F)cc1)CN(C)C21C(=O)Nc2ccccc21 (stereo not shown) [Compound 17e, Diethyl (E)-[5′′-(4-fluorobenzylidene)-4′-(4-fluorophenyl)-1′-methyl-2,4′′-dioxodispiro[indoline-3,2′-pyrrolidine-3′,3′′-piperidin]-1′′-yl]phosphonate] | 7.73 ± 0.155 µM | 2.1 | 55 ± 3.6% | 66.2% | 107.50 ± 2.0 pg/mL | 9.48 ± 0.278 µM | 1.8 | 59.6 ± 1.3% | 1.08 | 61% | 127.43 ± 1.3 pg/mL | 12.7% | 97.6 ± 1.6 pg/mL | 1.5% | 94.27 ± 0.7 pg/mL | 5.64 ± 0.273 µM | 2.9 | 6.99 ± 0.101 µM | 6.99 µM | 2.4 | 1/(observed property) [3]: 0.1055; TNF-α % inhibition MCF7 (TNF-α [9]): 1.7%; TNF-α pg/mL (± SEM) MCF7 (TNF-α [9]): 81.87 ± 3.0 pg/mL; IC50 [10]: 16.6 ± 0.907 µM; inhibition at 10 µM (VEGFR-2 [11]): 55%; VEGFR-2 pg/mL ± SEM MCF7 (VEGFR-2 [11]): 116.50 ± 1.0 pg/mL
